Laboratory results taken from patent US7875587B2, “Peptide analogues of GIP for treatment of diabetes, insulin resistance and obesity” (UUTECH Limited, priority 2004, dated 2011).
Values belong to the compound of their own block, whether it stands above or below them. No end group written: not given here.

Assays:
[1] = biological target: T1, DPP IV (Sus scrofa, UniProt P22411); experiment: DPP IV degradation studies of fatty acid derivatised GIP analogues; assay type: in vitro ADME, porcine; conditions: pig, isolated enzyme dpp iv, pH 7.8, incubation with DPP IV, read-out: % Intact peptide remaining after time (hours)
T1 construct: purchased Sigma (Poole, Dorset, UK)
T1 sequence (P22411 whole entry): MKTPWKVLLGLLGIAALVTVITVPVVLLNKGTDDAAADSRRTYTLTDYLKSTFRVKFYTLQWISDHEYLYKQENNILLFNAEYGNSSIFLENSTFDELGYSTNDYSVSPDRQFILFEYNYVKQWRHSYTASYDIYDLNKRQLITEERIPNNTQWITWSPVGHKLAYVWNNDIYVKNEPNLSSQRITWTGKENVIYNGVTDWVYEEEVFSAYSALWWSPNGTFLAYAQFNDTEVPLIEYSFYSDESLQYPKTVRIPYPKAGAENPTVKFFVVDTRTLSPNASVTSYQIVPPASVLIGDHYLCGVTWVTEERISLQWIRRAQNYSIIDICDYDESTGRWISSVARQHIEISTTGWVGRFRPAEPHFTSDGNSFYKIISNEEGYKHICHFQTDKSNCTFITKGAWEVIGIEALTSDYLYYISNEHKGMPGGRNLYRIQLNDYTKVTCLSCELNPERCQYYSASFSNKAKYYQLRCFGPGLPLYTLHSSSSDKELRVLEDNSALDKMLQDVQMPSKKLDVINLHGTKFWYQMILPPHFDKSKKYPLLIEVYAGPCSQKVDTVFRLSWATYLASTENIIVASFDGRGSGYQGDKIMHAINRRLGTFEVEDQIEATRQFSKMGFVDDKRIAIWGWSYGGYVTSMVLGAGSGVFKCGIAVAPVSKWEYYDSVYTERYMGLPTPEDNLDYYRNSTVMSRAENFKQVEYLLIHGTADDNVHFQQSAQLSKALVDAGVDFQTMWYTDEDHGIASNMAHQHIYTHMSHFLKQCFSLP
Method: DPP IV degradation studies. GIP and fatty acid derivatised GIP analogues were incubated at 37° C. with purified porcine dipeptidylpeptidase IV (5 mU in 50 mmol/l triethanolamine-HCl; pH 7.8) for 0, 2, 4, 8 and 24 hours (final peptide concentration 2 mmol/l). The reactions were subsequently terminated by addition of 10% (v/v) TFA/water and the reaction products separated using HPLC. […] HPLC peak area data were used to calculate % intact peptide remaining throughout the incubation.

[2] = biological target: T1, DPP IV; experiment: Degradation of GIP and analogues by DPP IV (HPLC); assay type: in vitro ADME
Method: Degradation of GIP and Tyr^1-glucitol GIP by DPP IV. HPLC-purified GIP or Tyr^1-glucitol GIP were incubated at 37° C. with DPP-IV (5 mU) for various time periods in a reaction mixture made up to 500 μl with 50 mmol/l triethanolamine-HCl, pH 7.8 (final peptide concentration 1 mmol/l). Enzymatic reactions were terminated after 0, 2, 4 and 12 hours by addition of 5 μl of 10% (v/v) TFA/water. Samples were made up to a final volume of 1.0 ml with 0.12% (v/v) TFA and stored at −20° C. prior to HPLC analysis.
(§1) HPLC analysis of degraded GIP and Tyr^1-glucitol GIP. […] Using 0.1% (v/v) TFA in 70% acetonitrile/H20, the concentration of acetonitrile in the eluting solvent was raised from 0% to 31.5% over 15 min, to 38.5% over 30 minutes and from 38.5% to 70% over 5 minutes, using linear gradients. The absorbance was monitored at 206 nm and peak areas evaluated using a model 2221 LKB integrator. Samples recovered manually were concentrated using a Speed-Vac concentrator.
(§2) Electrospray ionization-mass spectrometry (ESI-MS) was carried out as described in Example 2. Degradation of GIP and novel GIP analogues by DPP IV and human plasma was carried out as described in Example 2.

[3] = Degradation of GIP and analogues by human plasma (HPLC); assay type: in vitro ADME
Method: Degradation of GIP and Tyr^1-glucitol GIP by human plasma. […] […] The reactions were terminated by addition of 5 μl of TFA and the final volume adjusted to 1.0 ml using 0.1% v/v TFA/water. Samples were centrifuged (13,000 g, 5 minutes) and the supernatant applied to a C-18 Sep-Pak cartridge (Millipore-Waters) which was previously primed and washed with 0.1% (v/v) TFA/water. […] The volume was adjusted to 1.0 ml with 0.12% (v/v) TFA/water prior to HPLC purification.
as §1, §2

[4] = test system: normal mice; experiment: Chronic (11 days) (Pro3)GIP administration in normal mice; assay type: in vivo, mouse
Method: Effects of chronic (Pro^3)GIP administration on plasma glucose, insulin and glycated HbA1c in obese diabetic ob/ob mice and normal mice. Obese diabetic ob/ob mice and normal control mice aged 8-12 weeks were randomly divided into groups which received once daily subcutaneous injections (17:00 h) of either saline (0.9% w/v NaCl) or (Pro^3)GIP (25 nmol/kg body weight in saline). After 11 days, treatment was ceased. Food intake and body weight were recorded daily. Blood samples were collected from the cut tip of the tail of conscious mice into chilled fluoride/heparin coated glucose microcentrifuge tubes (Sarstedt, Numbrecht, Germany). Blood samples were immediately centrifuged using a Beckman microcentrifuge (Beckman Instruments, UK) for 30 seconds at 13000 g prior to glucose, insulin and HbA1c determinations.
Effects of chronic treatment with (Pro^3)GIP on glucose tolerance in ob/ob mice and normal mice. Plasma glucose and insulin concentrations were measured following intraperitoneal administration of glucose (18 mmol/kg body weight) in ob/ob and normal mice treated with either saline (0.9% w/v NaCl) or (Pro^3)GIP (25 nmol/kg body weight/day) for 11 days. […]
Determination of HbA1c, plasma glucose and insulin concentrations. HbA1c was measured in whole blood by ion-exchange high-performance liquid chromatography using the Menari HA-8140 kit (BIOMEN, Berkshire, UK). […]

[5] = isolated enzyme dpp iv, pH 7.8, % Intact peptide remaining after time (h)
[6] = human, plasma, pH 7.8, % Intact peptide remaining after incubations with human plasma

Compound: CCCCCCCCCCCCCCCC(=O)NCCCC[C@H](NC(=O)[C@H](Cc1c[nH]c2ccccc12)NC(=O)[C@H](CC(=O)O)NC(=O)[C@H](CC(N)=O)NC(=O)[C@H](CCCCN)NC(=O)[C@H](CCCCN)NC(=O)CNC(=O)[C@H](CCCCN)NC(=O)[C@H](CCC(N)=O)NC(=O)[C@H](C)NC(=O)[C@H](CC(C)C)NC(=O)[C@H](CC(C)C)NC(=O)[C@H](Cc1c[nH]c2ccccc12)NC(=O)[C@H](CC(N)=O)NC(=O)[C@@H](NC(=O)[C@H](Cc1ccccc1)NC(=O)[C@H](CC(=O)O)NC(=O)[C@H](CCC(N)=O)NC(=O)[C@H](CCC(N)=O)NC(=O)[C@H](Cc1c[nH]cn1)NC(=O)[C@@H](NC(=O)[C@H](CCCCN)NC(=O)[C@H](CC(=O)O)NC(=O)[C@H](CCSC)NC(=O)[C@H](C)NC(=O)[C@@H](NC(=O)[C@H](CO)NC(=O)[C@H](Cc1ccc(O)cc1)NC(=O)[C@H](CC(=O)O)NC(=O)[C@H](CO)NC(=O)[C@@H](NC(=O)[C@H](Cc1ccccc1)NC(=O)[C@@H](NC(=O)CNC(=O)[C@H](CCC(=O)O)NC(=O)[C@H](C)NC(=O)[C@H](Cc1ccc(O)cc1)NC(C)=O)[C@@H](C)O)[C@@H](C)CC)[C@@H](C)CC)[C@@H](C)CC)C(C)C)C(=O)N[C@@H](Cc1c[nH]cn1)C(=O)N[C@@H](CC(N)=O)C(=O)N[C@H](C(=O)N[C@H](C(=O)N[C@@H](CCC(N)=O)C(=O)O)[C@@H](C)O)[C@@H](C)CC [N-AcGIP(LysPAL^37)]
remaining at 2 h, 2 mmol/l ([1]; 2 h): 100%
remaining at 8 h, 2 mmol/l ([1]; 8 h): 100%
remaining at 24 h, 2 mmol/l ([1]; 24 h): 100%

% Intact peptide remaining after time (h) ([2]; 0 h): 100%
metabolised at 12 h, 1 mmol/l ([2]; isolated enzyme dpp iv, pH 7.8): 60%
remaining at 2 h, 1 mmol/l [2, 5]: 52 ± 1%
remaining at 4 h, 1 mmol/l [2, 5]: 23 ± 1%
remaining at 8 h, 1 mmol/l [2, 5]: 0%
remaining at 24 h, 1 mmol/l [2, 5]: 0%
remaining at 4 h, 1 mmol/l ([2]; isolated enzyme dpp iv, pH 7.8, % intact after incubation with DPP IV): 54%
degradation by human plasma [3]: readily metabolised
plasma degradation [3]: rapidly degraded
% Intact peptide remaining after incubations with human plasma ([3]; human, plasma, 0 h): 100%
remaining at 2 h, 20 µg/ml [3, 6]: 52 ± 1%
remaining at 4 h, 20 µg/ml [3, 6]: 23 ± 1%
remaining at 8 h, 20 µg/ml [3, 6]: 0%
Compound: CC[C@H](C)[C@H](NC(=O)[C@H](CO)NC(=O)[C@H](Cc1ccc(O)cc1)NC(=O)[C@H](CC(=O)O)NC(=O)[C@H](CO)NC(=O)[C@@H](NC(=O)[C@H](Cc1ccccc1)NC(=O)[C@@H](NC(=O)CNC(=O)[C@H](CCC(=O)O)NC(=O)[C@H](C)NC(=O)[C@@H](N)Cc1ccc(O)cc1)[C@@H](C)O)[C@@H](C)CC)C(=O)N[C@@H](C)C(=O)N[C@@H](CCSC)C(=O)N[C@@H](CC(=O)O)C(=O)N[C@@H](CCCCN)C(=O)N[C@H](C(=O)N[C@@H](Cc1c[nH]cn1)C(=O)N[C@@H](CCC(N)=O)C(=O)N[C@@H](CCC(N)=O)C(=O)N[C@@H](CC(=O)O)C(=O)N[C@@H](Cc1ccccc1)C(=O)N[C@H](C(=O)N[C@@H](CC(N)=O)C(=O)N[C@@H](Cc1c[nH]c2ccccc12)C(=O)N[C@@H](CC(C)C)C(=O)N[C@@H](CC(C)C)C(=O)N[C@@H](C)C(=O)N[C@@H](CCC(N)=O)C(=O)N[C@@H](CCCCN)C(=O)NCC(=O)N[C@@H](CCCCN)C(=O)N[C@@H](CCCCN)C(=O)N[C@@H](CC(N)=O)C(=O)N[C@@H](CC(=O)O)C(=O)N[C@@H](Cc1c[nH]c2ccccc12)C(=O)N[C@@H](CCCCN)C(=O)N[C@@H](Cc1c[nH]cn1)C(=O)N[C@@H](CC(N)=O)C(=O)N[C@H](C(=O)N[C@H](C(=O)N[C@@H](CCC(N)=O)C(=O)O)[C@@H](C)O)[C@@H](C)CC)C(C)C)[C@@H](C)CC [GIP 1–42, reference compound]

Compound: YAPGTFISDYSIAMDKIHQQDFVNWLLAQKGKKNDWKHNITQ [(Pro^3)GIP]
glucose tolerance in normal mice after cessation ([4]; 9 days after cessation of treatment): reversed 9 days after cessation of treatment
glucose tolerance in normal mice ([4]; daily treatment for 11 days): marked deterioration of glucose tolerance
